What was measured:
YKL-5-124 = compound: C=CC(=O)Nc1ccc(C(=O)Nc2[nH]nc3c2CN(C(=O)N[C@H](CN(C)C)c2ccccc2)C3(C)C)cc1 [YKL-5-124]; assay: GR value, 72 h; higher = faster growth (1 = untreated, <0 = killing);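 note: breast cancer and non-malignant breast epithelial lines, nine half-log doses, viable cells counted by Hoechst and LIVE/DEAD dye imaging versus time-zero plates and DMSO controls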
LEE011/Ribociclib = compound: CN(C)C(=O)c1cc2cnc(Nc3ccc(N4CCNCC4)cn3)nc2n1C1CCCC1 [LEE011/Ribociclib]; assay: as above
THZ531 = compound: CN(C)C/C=C/C(=O)Nc1ccc(C(=O)N2CCC[C@@H](Nc3ncc(Cl)c(-c4c[nH]c5ccccc45)n3)C2)cc1 [THZ531]; assay: as above
THZ1 = compound: CN(C)C/C=C/C(=O)Nc1ccc(C(=O)Nc2cccc(Nc3ncc(Cl)c(-c4c[nH]c5ccccc45)n3)c2)cc1 [THZ1]; assay: as above
[1] = compound: CCc1cnn2c(NCc3ccc[n+]([O-])c3)cc(N3CCCC[C@H]3CCO)nc12; assay: as above
Flavopiridol [2] = compound: T1, CN1CC[C@H](c2c(O)cc(O)c3c(=O)cc(-c4ccccc4Cl)oc23)[C@H](O)C1 [Flavopiridol]; assay: as above
[3] = compound: CCN1CCN(Cc2ccc(Nc3ncc(F)c(-c4cc(F)c5nc(C)n(C(C)C)c5c4)n3)nc2)CC1; assay: as above
BSJ-03-123 [4] = compound: T2, CC(=O)c1c(C)c2cnc(Nc3ccc(N4CCN(CCOCCOCCOCCNC(=O)COc5cccc6c5C(=O)N(C5CCC(=O)NC5=O)C6=O)CC4)cn3)nc2n(C2CCCC2)c1=O [BSJ-03-123]; assay: as above
BVD523 = compound: CC(C)Nc1cc(-c2c[nH]c(C(=O)N[C@H](CO)c3cccc(Cl)c3)c2)c(Cl)cn1 [BVD523]
Neratinib/HKI272 = compound: CCOc1cc2ncc(C#N)c(Nc3ccc(OCc4ccccn4)c(Cl)c3)c2cc1NC(=O)/C=C/CN(C)C [Neratinib/HKI272]
R0-3306 = compound: C1=CC2=C(C=CC(=C2)C=C3C(=O)NC(=NCC4=CC=CS4)S3)N=C1 [R0-3306]
AZD5363 = compound: NC1(C(=O)N[C@@H](CCO)c2ccc(Cl)cc2)CCN(c2nc[nH]c3nccc2-3)CC1 [AZD5363]
Flavopiridol [5] = compound: T1, Flavopiridol
[6] = compound: CCC1=CN=CN=C1N2CCN(CC2)CC3=NC4=C(N3)C=C(C=C4)C(F)(F)F
[7] = compound: CO[C@@H](C)Cn1c(=O)n(C)c2cnc3ccc(-c4cncc(C(C)(C)O)c4)cc3c21
Paclitaxel = compound: CC(=O)O[C@H]1C(=O)[C@@]2(C)[C@H]([C@H](OC(=O)c3ccccc3)[C@]3(O)C[C@H](OC(=O)[C@H](O)[C@@H](NC(=O)c4ccccc4)c4ccccc4)C(C)=C1C3(C)C)[C@]1(OC(C)=O)CO[C@@H]1C[C@@H]2O [Paclitaxel]
BSJ-03-123 [8] = compound: T2, BSJ-03-123
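Throughout, for GR50, 72 h: breast cancer and non-malignant breast epithelial cell lines, Deep Dye Drop or Dye Drop imaging, nine half-log doses, GR normalized to time-zero plates and DMSO-only controls.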

ZR751
GR value (YKL-5-124; 0.001 µM): 0.57 GR | GR value (YKL-5-124; 0.003162 µM): 0.342 GR | GR value (YKL-5-124; 0.01 µM): 0.325 GR | GR value (YKL-5-124; 0.03162 µM): 0.282 GR | GR value (YKL-5-124; 0.1 µM): 0.254 GR | GR value (YKL-5-124; 0.3162 µM): 0.238 GR | GR value (YKL-5-124; 1 µM): 0.239 GR | GR value (YKL-5-124; 3.162 µM): 0.223 GR | GR value (YKL-5-124; 10 µM): 0.128 GR | GR value (LEE011/Ribociclib; 0.001 µM): 0.912 GR | GR value (LEE011/Ribociclib; 0.003162 µM): 0.814 GR | GR value (LEE011/Ribociclib; 0.01 µM): 0.881 GR | GR value (LEE011/Ribociclib; 0.03162 µM): 0.801 GR | GR value (LEE011/Ribociclib; 0.1 µM): 0.812 GR | GR value (LEE011/Ribociclib; 0.3162 µM): 0.667 GR | GR value (LEE011/Ribociclib; 1 µM): 0.737 GR | GR value (LEE011/Ribociclib; 3.162 µM): 0.603 GR | GR value (LEE011/Ribociclib; 10 µM): 0.351 GR | GR value (THZ531; 0.0001 µM): 1.06 GR | GR value (THZ531; 0.0003162 µM): 0.851 GR | GR value (THZ531; 0.001 µM): 0.958 GR | GR value (THZ531; 0.003162 µM): 0.936 GR | GR value (THZ531; 0.01 µM): 1.03 GR | GR value (THZ531; 0.03162 µM): 0.969 GR | GR value (THZ531; 0.1 µM): 0.991 GR | GR value (THZ531; 0.3162 µM): 0.856 GR | GR value (THZ531; 1 µM): -0.208 GR | GR value (THZ1; 0.0001 µM): 1.03 GR | GR value (THZ1; 0.0003162 µM): 1.02 GR | GR value (THZ1; 0.001 µM): 0.935 GR | GR value (THZ1; 0.003162 µM): 0.967 GR | GR value (THZ1; 0.01 µM): 0.949 GR | GR value (THZ1; 0.03162 µM): 0.915 GR | GR value (THZ1; 0.1 µM): 0.816 GR | GR value (THZ1; 0.3162 µM): 0.748 GR | GR value (THZ1; 1 µM): -0.165 GR | GR value ([1]; 0.0001 µM): 1.03 GR | GR value ([1]; 0.0003162 µM): 1.04 GR | GR value ([1]; 0.001 µM): 1.02 GR | GR value ([1]; 0.003162 µM): 0.969 GR | GR value ([1]; 0.01 µM): 1.02 GR | GR value ([1]; 0.03162 µM): 0.644 GR | GR value ([1]; 0.1 µM): -0.456 GR | GR value ([1]; 0.3162 µM): -0.359 GR | GR value ([1]; 1 µM): -0.434 GR | GR value (Flavopiridol [2]; 0.0001 µM): 0.988 GR | GR value (Flavopiridol [2]; 0.0003162 µM): 0.993 GR | GR value (Flavopiridol [2]; 0.001 µM): 0.995 GR | GR value (Flavopiridol [2]; 0.003162 µM): 0.915 GR | GR value (Flavopiridol [2]; 0.01 µM): 0.952 GR | GR value (Flavopiridol [2]; 0.03162 µM): 0.988 GR | GR value (Flavopiridol [2]; 0.1 µM): 0.935 GR | GR value (Flavopiridol [2]; 0.3162 µM): 0.577 GR | GR value (Flavopiridol [2]; 1 µM): -0.371 GR | GR value ([3]; 0.001 µM): 0.95 GR | GR value ([3]; 0.003162 µM): 0.94 GR | GR value ([3]; 0.01 µM): 0.843 GR | GR value ([3]; 0.03162 µM): 0.604 GR | GR value ([3]; 0.1 µM): 0.461 GR | GR value ([3]; 0.3162 µM): 0.366 GR | GR value ([3]; 1 µM): 0.351 GR | GR value ([3]; 3.162 µM): 0.309 GR | GR value ([3]; 10 µM): 0.38 GR | GR value (BSJ-03-123 [4]; 0.001 µM): 0.927 GR | GR value (BSJ-03-123 [4]; 0.003162 µM): 0.911 GR | GR value (BSJ-03-123 [4]; 0.01 µM): 0.863 GR | GR value (BSJ-03-123 [4]; 0.03162 µM): 0.788 GR | GR value (BSJ-03-123 [4]; 0.1 µM): 0.838 GR | GR value (BSJ-03-123 [4]; 0.3162 µM): 0.697 GR | GR value (BSJ-03-123 [4]; 1 µM): 0.625 GR | GR value (BSJ-03-123 [4]; 3.162 µM): 0.617 GR | GR value (BSJ-03-123 [4]; 10 µM): 0.22 GR | GR50, 72 h (BVD523): > 10 µM | GR50, 72 h (Neratinib/HKI272): > 3.16 µM | GR50, 72 h (R0-3306): > 10 µM | GR50, 72 h (AZD5363): > 10 µM | GR50, 72 h (Flavopiridol [5]): 0.35 µM | GR50, 72 h [6]: > 10 µM | GR50, 72 h [7]: 0.0135 µM | GR50, 72 h (Paclitaxel): 0.0088 µM | GR50, 72 h (BSJ-03-123 [8]): 3.04 µM

SUM44PE
GR value (YKL-5-124; 0.001 µM): -0.181 GR | GR value (YKL-5-124; 0.003162 µM): 0.0065 GR | GR value (YKL-5-124; 0.01 µM): -0.018 GR | GR value (YKL-5-124; 0.03162 µM): -0.112 GR | GR value (YKL-5-124; 0.1 µM): -0.198 GR | GR value (YKL-5-124; 0.3162 µM): -0.167 GR | GR value (YKL-5-124; 1 µM): -0.274 GR | GR value (YKL-5-124; 3.162 µM): -0.448 GR | GR value (LEE011/Ribociclib; 0.001 µM): 0.854 GR | GR value (LEE011/Ribociclib; 0.003162 µM): 0.783 GR | GR value (LEE011/Ribociclib; 0.01 µM): 0.676 GR | GR value (LEE011/Ribociclib; 0.03162 µM): 0.637 GR | GR value (LEE011/Ribociclib; 0.1 µM): 0.663 GR | GR value (LEE011/Ribociclib; 0.3162 µM): 0.636 GR | GR value (LEE011/Ribociclib; 1 µM): 0.55 GR | GR value (LEE011/Ribociclib; 3.162 µM): 0.545 GR | GR value (LEE011/Ribociclib; 10 µM): 0.378 GR | GR value (THZ531; 0.0001 µM): 1.05 GR | GR value (THZ531; 0.0003162 µM): 0.994 GR | GR value (THZ531; 0.001 µM): 0.799 GR | GR value (THZ531; 0.003162 µM): 1.04 GR | GR value (THZ531; 0.01 µM): 0.941 GR | GR value (THZ531; 0.03162 µM): 0.783 GR | GR value (THZ531; 0.1 µM): -0.203 GR | GR value (THZ1; 0.0001 µM): 1.02 GR | GR value (THZ1; 0.0003162 µM): 0.977 GR | GR value (THZ1; 0.001 µM): 0.784 GR | GR value (THZ1; 0.003162 µM): 0.888 GR | GR value (THZ1; 0.01 µM): -0.229 GR | GR value (THZ1; 1 µM): -0.0313 GR | GR value ([1]; 0.0001 µM): 0.983 GR | GR value ([1]; 0.0003162 µM): 1.03 GR | GR value ([1]; 0.001 µM): 1.08 GR | GR value ([1]; 0.003162 µM): 0.918 GR | GR value ([1]; 0.01 µM): 0.257 GR | GR value ([1]; 0.03162 µM): -0.925 GR | GR value (Flavopiridol [2]; 0.0001 µM): 0.968 GR | GR value (Flavopiridol [2]; 0.0003162 µM): 0.969 GR | GR value (Flavopiridol [2]; 0.001 µM): 0.862 GR | GR value (Flavopiridol [2]; 0.003162 µM): 0.951 GR | GR value (Flavopiridol [2]; 0.01 µM): 0.707 GR | GR value (Flavopiridol [2]; 0.03162 µM): 0.489 GR | GR value (Flavopiridol [2]; 0.1 µM): -0.0333 GR | GR value (Flavopiridol [2]; 0.3162 µM): -0.573 GR | GR value ([3]; 0.001 µM): 0.905 GR | GR value ([3]; 0.003162 µM): 0.922 GR | GR value ([3]; 0.01 µM): 0.666 GR | GR value ([3]; 0.03162 µM): 0.413 GR | GR value ([3]; 0.1 µM): 0.251 GR | GR value ([3]; 0.3162 µM): 0.237 GR | GR value ([3]; 1 µM): 0.201 GR | GR value ([3]; 3.162 µM): 0.134 GR | GR value ([3]; 10 µM): -0.763 GR | GR value (BSJ-03-123 [4]; 0.001 µM): 0.917 GR | GR value (BSJ-03-123 [4]; 0.003162 µM): 0.854 GR | GR value (BSJ-03-123 [4]; 0.01 µM): 0.911 GR | GR value (BSJ-03-123 [4]; 0.03162 µM): 0.8 GR | GR value (BSJ-03-123 [4]; 0.1 µM): 0.722 GR | GR value (BSJ-03-123 [4]; 0.3162 µM): 0.669 GR | GR value (BSJ-03-123 [4]; 1 µM): 0.45 GR | GR value (BSJ-03-123 [4]; 3.162 µM): 0.337 GR | GR50, 72 h (BVD523): 2.7 µM | GR50, 72 h (Neratinib/HKI272): 0.0248 µM | GR50, 72 h (R0-3306): 1.91 µM | GR50, 72 h (AZD5363): 0.0475 µM | GR50, 72 h (Flavopiridol [5]): 0.0276 µM | GR50, 72 h [6]: 6.53 µM | GR50, 72 h [7]: < 0.001 µM | GR50, 72 h (Paclitaxel): 0.00153 µM | GR50, 72 h (BSJ-03-123 [8]): 0.818 µM

— the supplement of paper PMC9663587
